According to patent publication US5795897A, “Oxohexyl methylxanthine compounds” (Cell Therapeutics, Inc., priority 1994, dated 1998):
Entries after “also recorded” stand apart in the source; their conditions may differ.

How the values were obtained:
[1] = test system: polymorphonuclear leukocytes; conditions: in response to a stimulator of chemotaxis; U.S. Pat. No. 4,636,507; cited from earlier work
[2] = U.S. Pat. Nos 4,515,795 and 4,576,947; cited from earlier work
[3] = test system: PBMC (peripheral blood mononuclear cells); experiment: Mixed lymphocyte reaction; format: cell-based, human; conditions: CT1505 versus PTX, FIG. 5
From the text: Various in vitro assays can be used to measure effects of 1-(5-oxohexyl)-3methylxanthine to module immune activity and have antitumor activity using a variety of cellular types. For example, a mixed lymphocyte reaction (MLR) provides a valuable screening tool to determine biological activity of 1-(5-oxohexyl)-3-methylxanthine. In the MLR, PBMCs (peripheral blood mononuclear cells) are obtained by drawing whole blood from healthy volunteers in a heparinized container and diluted with an equal volume of hanks balanced salt solution (HBSS). This mixture is layered on a sucrose density gradient, such as a Ficoll-Hypaque® gradient (specific gravity 1.08), and centrifuged at 1000×g for 25 minutes at room temperature or cooler. PBMC are obtained from a band at a plasma-Ficoll interface, separated and washed at least twice in a saline solution, such as HBSS. Contaminating red cells are lysed, such as by ACK lysis for 10 min at 37° C., and the PBMCs are washed twice in HBSS. The pellet of purified PBMCs is resuspended in complete medium, such as RPMI 1640 plus 20% human inactivated serum. Proliferative response of PBMC to allogeneic stimulation is determined in a two-way MLR performed in a 96-well microtiter plate. […] At the conclusion of the incubation tritiated thymidine is added (for example, 1 μCi/well of 40 to 60 Ci/mmole) and proliferation determined by liquid scintillation counting. […]

[4] = test system: synaptosomes stimulated with acetylcholine and/or epinephrine (PA and DAG); experiment: PA and DAG levels in stimulated synaptosomes; format: biochemical
Description: (§1) One in vitro assay measures inhibition of the relevant enzymes lysophosphatidic acid acyltransferase (LPAAT) and phosphatidic acid phosphoryl hydrolase (PAPH). The assay involves incubating of target cells with a primary stimulus (e.g., a variety of cytokines, growth factors, oncogene products, putative therapeutic agents, irradiation, viral infection, toxins, bacterial infection and the products thereof, and any stimulus which, if not counteracted, has a deleterious effect on the target cell) in the presence or absence of 1-(5-oxohexyl)-3-methylxanthineat varying dosage levels. Target cells include, for example, subcellular entities, such as, microsomes derived from mesenchymal and/or ectodermal cells, particularly microsomes from marrow stromal cells or human or rat mesangial cells; microsomes or synaptosomes derived from bovine brain; plasma membrane-enriched microsomes or plasma membranes derived as described in Bursten et al. (J. Biol. Chem. […]:20732-20743, 1991) detergent-solubilized microsomes; synaptosomes, and membranes or other cell preparations solubilized using, for example, NP-40,Miranal, SDS or other neutral detergents; and detergent-solubilized or further purified preparations of cell proteins, including the proteins LPAAT and/or PAPH. […] Thus, the relevant unsaturated (non-arachidonic) PA and DAG subspecies may be detected. […]

[5] = test system: LD-2 cells, a human malignant melanoma cell line; experiment: Cytotoxicity on LD-2 cells; format: cell-based; conditions: various concentrations, FIG. 3
Description: The cells were treated with various concentrations of CT1505 and later stained for cell viability with a fluorescence stain.
(§2) 1-(5-oxohexyl)-3-methylxanthine was investigated for cytotoxicity to determine appropriate doses for biological activity assays and to prevent cytotoxic reactions in in vitro assays when characterizing activity. Cells (e.g., NIH-3T3, Ras transformed 3T3 cells, malignant melanoma LD2 cells, etc.) are added to microtiter plates and drug is added about two days after plating. Cell viability is determined using a fluorescent viability stain (2', 7'-bis-(2-carboroxyethyl)-5-(and -6)-carboxyfluorescein acetoxymethyl ester, BCECF excitation 488 nm and emission 525 nm) 24,48 or 72 hours after addition of the drug.
This example illustrates that CT1505 has cytotoxic activity for the LD-2 tumor cell line. Cytotoxicity of LD-2 cells was determined with concentrations of CT1505 up to 1.0 mM (see FIG. 3).

[6] = test system: L929 murine fibroblast cells; experiment: L929 TNF cytotoxicity assay (protection, fluorescent viability dye); format: cell-based; conditions: TNF-α 500 pg/ml, 40 hrs at 37° C; 2 hrs preincubation; FIG. 1
Description: The cells plus (or minus) drug plus TNF were incubated for 40 hrs at 37° C.

NIH-3T3 Ras cells = experiment: Cytotoxicity on Ras transformed NIH-3T3 cells; format: cell-based; conditions: various concentrations, FIG. 4
Description: (§3) The cells were treated with various concentrations of CT1505 (in the mM range on a log scale) and later stained for cell viability with a fluorescence stain.
as §2
(§4) This example illustrates that CT1505 has cytotoxic activity for NIH-3T3 and NIH-Ras transformed tumor cells. Cytotoxicity of the cells was determined with concentrations of CT1505 up to 1.0 mM (see FIG. 4).

[7] = test system: U937 cells to TNF activated human umbilical vein endothelial cells (HUVEC); experiment: Adhesion of U937 cells to TNF-activated HUVEC; format: cell-based; conditions: FIG. 2
Description: This example illustrates the effects of CT1505 to inhibit adhesion of U937 cells to TNF-activated HUVEC cells In this experiment, HUVEC cells were induced with human TNF-α(20ng/ml) and incubated with drug (CT1505) at varying concentrations for 14-16 hrs. U937 cells (a human monocyte cell line) were incubated and labeled with BCECF (10 μg/ml), a fluorescent dye. The U937 cell preparation (2.5×10^4 cells per well) was layered on top of the activated HUVEC cells. The cells were reverse spun to remove partially adhering and nonadhering U937 cell. The adherent U937 cells were measured by fluorescence on a fluorescent plate reader.

PA and DAG = experiment: Elevation of PA and DAG upon primary stimulus; format: cell-based; conditions: e.g. interleukin-1 or TNF
Description: as §1

NIH-3T3 cells = experiment: Cytotoxicity on NIH-3T3 cells; format: cell-based; conditions: various concentrations, FIG. 4
Description: as §3, §2, §4

certain cytokines = conditions: U.S. Pat. Nos. 4,965,271 and 5,096,906; cited from earlier work
TNF = conditions: normal volunteers; cited from earlier work

SMILES	chemotaxis in polymorphonuclear leukocytes [1]	cerebral blood flow [2]	immune modulating activity [3]	effect on enhanced PA and DAG levels [4]	cytotoxicity [5]	protection of fibroblast cells from TNF cytotoxicity [6]	cytotoxicity (NIH-3T3 Ras cells)	concentration range of adhesion inhibitory activity ([7]; TNF-activated HUVEC)	inhibition of adhesion of U937 cells to activated HUVEC ([7]; TNF-α 20 ng/ml, 14-16 hrs)	effect on elevation of PA and DAG levels (PA and DAG)	cytotoxicity (NIH-3T3 cells)	activity of certain cytokines to affect chemotaxis (certain cytokines)	TNF levels (TNF)
CC(O)CCCCn1c(=O)c2c(ncn2C)n(C)c1=O (centres unmarked) [M1, 1-(5-hydroxyhexyl)-3,7-dimethylxanthine]	stimulate chemotaxis	increasing cerebral blood flow											
CC(=O)CCCCn1c(=O)c2[nH]cnc2n(C)c1=O [CT1505, 1-(5-oxohexyl)-3-methylxanthine]			more potent immune modulating activity with CT1505 than with PTX; also recorded: more potent drug for cause immune modulating activity than was PTX	able to decrease enhanced levels of a relevant PA and DAG	cytotoxic at higher concentrations	protected the fibroblast cells from TNF cytotoxicity better than PTX and much better than the control cells	cytotoxic at higher concentrations	tenths of mM	inhibits adhesion of U937 cells to TNF activated human umbilical vein endothelial cells; also recorded: inhibited the inflammatory response of the activated HUVEC cells to adhere U937 monocytes in a dose response fashion	reverses this elevation	cytotoxic at higher concentrations		
CC(=O)CCCCn1c(=O)c2c(ncn2C)n(C)c1=O [PTX, 1-(5-oxohexyl)-3,7-dimethylxanthine]	stimulate chemotaxis											inhibit activity of certain cytokines	TNF levels were higher among PTX recipients
